In patent publication US20080058373A1, “Compositions and Methods for Treating or Preventing Glaucoma or Progression Thereof” (priority 2006, published 2008):
Several values for one entry are separate records, joined by “and”; a condition that tells them apart may be missing. Equal values may be shown once.

Tests used:
Format in all cases: in vivo
Myeloperoxidase (MPO) = Myeloperoxidase (MPO) activity in iris-ciliary body, rabbit paracentesis model; settings: for MPO activity in iris-ciliary body, Mean / MPO activity in iris-ciliary body: samples collected after the second paracentesis; for MPO activity in iris-ciliary body, Mean: group mean; for Δ/min (mean of the slope of the line recorded every 15 sec for 5 min) / MPO activity in iris-ciliary body: individual eyes
Procedure: 3.9 g of NaH2PO4 2H2O were dissolved in a volumetric flask to 500 ml with water. The pH was adjusted to pH=6 with 3N NaOH.
0.5 g of hexa-decyl-trimethyl-ammonium bromide was dissolved in 100 ml phosphate buffer.
The solution was prepared freshly. Ten microliters of H2O2 (30 wt. %) were diluted to 1 ml with water (solution A). 7.5 mg o-dianisidine 2HCl was dissolved in 45 ml of phosphate buffer and 75 μl of solution A were added.
(§1) Each rabbit was placed in a restraint device and tagged with the alphanumeric code. The formulations were instilled (50 μl) into the conjunctival sac of both eyes 180, 120, 90 and 30 min before the first paracentesis; then 15, 30, 90 min after the first paracentesis. To perform the first paracentesis the animals were anaesthetized by intravenous injection of 5 mg/kg Zoletil® (Virbac; 2.5 mg/kg tiletamine HCl and 2.5 mg/kg zolazepam HCl) and one drop of local anesthetic (Novesina®, Novartis) was administered to the eye. Anterior chamber paracentesis was performed with a 26 G needle attached to a tuberculin syringe; the needle was introduced into the anterior chamber through the cornea, taking care not to damage the tissues. Two hours after the first paracentesis, the animals were sacrificed with 0.4 ml Tanax® (Intervet International B.V.) and the second paracentesis was performed. About 100 μl of aqueous humor were removed at the second paracentesis. Aqueous humor was immediately split in four aliquots and stored at −80° C. until analysis. Then both eyes were enucleated and the iris-ciliary body was carefully excised, placed in polypropylene tubes, and stored at −80° C. until analysis.
The activity of MPO was measured as previously described by Williams et al.[5] The iris-ciliary bodies were carefully dried, weighed and immersed in 1 ml of hexa-decyl-trimethyl-ammonium bromide solution. Then, the samples were sonicated for 10 sec on ice by a ultrasound homogenizer (HD 2070, Bandelin electronic), freeze-thawed three times, sonicated for 10 sec and centrifuged at 14,000 g for 10 min to remove cellular debris. An aliquot of the supernatant (40-200 μl) was diluted to 3 ml with the o-dianisidine 2HCl/H2O2 solution. The change in absorbance at 460 nm was continuously monitored for 5 min by a spectrophotometer (UV/Vis Spectrometer Lambda EZ 201; Perkin Elmer). The slope of the line (Δ/min) was determined for each sample and used to calculate the number of units of MPO in the tissue as follows:
Values were expressed as units of MPO/g of tissue.

[1] = test system: rabbit eye (anterior chamber paracentesis); assay: Pupillary diameter measurement, rabbit paracentesis model; settings: for Pupillary diameter T1: −180 min: 50 μl drops, −180 min (basal); for Pupillary diameter T1: −180 min / Pupillary diameter T2: −5 min / Pupillary diameter T3: +115 min: single eyes; for Pupillary diameter T2: −5 min: 5 min before the first paracentesis; for Pupillary diameter T3: +115 min: 5 min before the second paracentesis; for Pupillary diameter Mean Δ(T3 − T1): group mean, n=8 eyes
Procedure: as §1
The pupillary diameter of both eyes was measured with a Castroviejo caliper 180 min and 5 min before the first paracentesis and 5 min before the second paracentesis.

Prostaglandin E2 (PGE2) = Prostaglandin E2 (PGE2) measurement in aqueous humor, rabbit paracentesis model; settings: second paracentesis, group mean
Procedure: as §1
For the quantitative determination of PGE2 in the aqueous humor we used the PGE2 Immunoassay kit (R&D Systems; Cat.No. KGE004; Lot.No. 240010). Eleven microliters or 16 μl of aqueous humor were diluted to 110 μl or 160 μl with the calibrator diluent solution provided with the kit. One hundred microliters of samples and of standards were load into a 96-well plate and recorded in a plate layout. Samples were treated following the assay procedure described in the kit. A microplate reader (GDV, Italy; model DV 990 B/V6) set at 450 nm (wavelength correction at 540 nm) was used for making the calibration and analyzing the samples.

[2] = test system: rabbit eye (anterior chamber paracentesis); assay: Clinical evaluation by slit lamp (clinical score), rabbit paracentesis model; parameters: key to Clinical Score −180 min / Clinical Score −5 min / Clinical Score +115 min: 0=normal; 1=discrete dilatation of iris and conjunctival vessels; 2=moderate dilatation of iris and conjunctival vessels; 3=intense iridal hyperemia with flare in the anterior chamber; 4=intense iridal hyperemia with flare in the anterior chamber and presence of fibrinous exudates; settings: for Clinical Score −5 min: 5 min before the first paracentesis; for Clinical Score −5 min / Clinical Score +115 min / Clinical Score −180 min: single eyes; for Clinical Score +115 min: 5 min before the second paracentesis
protein in aqueous humor = assay: Protein measurement in aqueous humor, rabbit paracentesis model; settings: for Protein levels in aqueous humor (raw data): samples collected at the second paracentesis, single eyes; for Protein levels in aqueous humor, Mean: second paracentesis, group mean
Procedure: as §1
For protein concentration determination in the aqueous humor we used the Protein Quantification Kit (Fluka; Cat.No. 77371; Lot.No. 1303129). Five microliters of aqueous humor were diluted to 100 μl with water. Twenty microliters of samples and of standards were load into a 96-well plate and recorded in a plate layout. Samples were treated following the assay procedure described in the kit. A microplate reader (GDV, Italy; model DV 990 B/V6) set at 670 nm was used for making the calibration and analyzing the samples.

Leukocytes (PMN) = Leukocytes (PMN) measurement in aqueous humor, rabbit paracentesis model; settings: for PMN numbers in aqueous humor, Mean: second paracentesis, group mean
Procedure: as §1
For the determination of the number of leukocytes we used a haemocytometer (Improved Neubauer Chamber; Bright-line, Hausser Scientific) and a Polyvar 2 microscope (Reichert-Jung).

[3] = 0.5% topical, +115 min, N=8 eyes

With `CC(C(=O)O)c1ccc(-c2ccccc2)c(F)c1` (stereo not drawn) [flurbiprofen] the “MPO activity in iris-ciliary body, Mean” value (Myeloperoxidase (MPO); 0.03% topical) was 0.906 MPO Unit/g, the “Δ/min (mean of the slope of the line recorded every 15 sec for 5 min)” value (Myeloperoxidase (MPO); 0.03% treatment, 100 μl supernatant aliquot diluted to 3 ml, listed as F) was 0.049 and 0.082 and 0.013 and 0.031 and 0.038 and 0.027 and 0.033 and 0.061 and the “MPO activity in iris-ciliary body” value (Myeloperoxidase (MPO); 0.03% treatment, listed as F) was 1.10 Unit/g and 1.70 Unit/g and 0.34 Unit/g and 0.75 Unit/g and 0.74 Unit/g and 0.63 Unit/g and 0.73 Unit/g and 1.27 Unit/g. For the same molecule, the “Pupillary diameter T1: −180 min” value ([1]; 0.03% topical, listed as F) was 5.0 mm and 7.0 mm and 6.0 mm and 5.5 mm, the “Pupillary diameter T2: −5 min” value ([1]; 0.03% topical, listed as F) was 6.0 mm and 6.5 mm and 7.0 mm and 5.5 mm and the “Pupillary diameter T3: +115 min” value ([1]; 0.03% topical, listed as F) was 4.0 mm and 3.5 mm and 5.5 mm and 5.0 mm and 4.5 mm and 6.0 mm. The “Pupillary diameter Mean Δ(T3 − T1)” value ([1]; 0.03% topical) was −0.9 mm, the “Levels of PGE2 in aqueous humor, Mean” value (Prostaglandin E2 (PGE2); 0.03% topical) was 1.189 ng/mL and the “Clinical Score −5 min” value ([2]; 0.03% topical) was 0. The “Clinical Score +115 min” value ([2]; 0.03% topical) was 2, the “Percentage of eyes with clinical score 2” value ([2]; 0.03% topical, +115 min, N=8 eyes) was 100% and the “Percentage of eyes with clinical score 0” value ([2]; 0.03% topical, −5 min, N=8 eyes) was 100%. For the same molecule, the “Percentage of eyes with clinical score 0” value ([2]; 0.03% topical, −180 min (basal), N=8 eyes) was 100%, the “Clinical Score −180 min” value ([2]; 0.03% topical, −180 min (basal)) was 0 and the “Protein levels in aqueous humor (raw data)” value (protein in aqueous humor; 0.03% topical, listed as F) was 20.78 mg/mL and 28.80 mg/mL and 23.41 mg/mL and 20.21 mg/mL and 17.53 mg/mL and 15.12 mg/mL and 20.52 mg/mL. For the same molecule, the “Protein levels in aqueous humor, Mean” value (protein in aqueous humor; 0.03% topical) was 20.910 mg/mL and the “PMN numbers in aqueous humor, Mean” value (Leukocytes (PMN); 0.03% topical) was 30.000 number/μl.

`CCOC(=O)O[C@]1(C(=O)OCCl)CC[C@H]2[C@@H]3CCC4=CC(=O)C=C[C@]4(C)[C@H]3[C@@H](O)C[C@@]21C` [loteprednol etabonate] was tested, and the “MPO activity in iris-ciliary body, Mean” value (Myeloperoxidase (MPO); 0.5% topical) was 0.661 MPO Unit/g, the “Δ/min (mean of the slope of the line recorded every 15 sec for 5 min)” value (Myeloperoxidase (MPO); 0.5% treatment, 200 μl supernatant aliquot diluted to 3 ml, listed as LE) was 0.026 and 0.053 and 0.067 and 0.055 and 0.076 and 0.096 and the “MPO activity in iris-ciliary body” value (Myeloperoxidase (MPO); 0.5% treatment, listed as LE) was 0.30 Unit/g and 0.51 Unit/g and 0.81 Unit/g and 0.60 Unit/g and 0.73 Unit/g and 1.01 Unit/g. The “Pupillary diameter T1: −180 min” value ([1]; 0.5% topical, listed as LE) was 6.0 mm and 6.5 mm, the “Pupillary diameter T2: −5 min” value ([1]; 0.5% topical, listed as LE) was 6.0 mm and 6.5 mm and the “Pupillary diameter T3: +115 min” value ([1]; 0.5% topical, listed as LE) was 4.5 mm and 5.0 mm and 5.5 mm and 6.0 mm. The “Pupillary diameter Mean Δ(T3 − T1)” value ([1]; 0.5% topical) was −0.9 mm, the “Levels of PGE2 in aqueous humor, Mean” value (Prostaglandin E2 (PGE2); 0.5% topical) was 0.672 ng/mL and the “Clinical Score −5 min” value ([2]; 0.5% topical) was 0. The “Clinical Score +115 min” value ([2]; 0.5% topical, listed as LE) was 2 and 1, the “Percentage of eyes with clinical score 1” value [2, 3] was 75% and the “Percentage of eyes with clinical score 2” value [2, 3] was 25%. The “Percentage of eyes with clinical score 0” value ([2]; 0.5% topical, −5 min, N=8 eyes) was 100%, the “Percentage of eyes with clinical score 0” value ([2]; 0.5% topical, −180 min (basal), N=8 eyes) was 100% and the “Clinical Score −180 min” value ([2]; 0.5% topical, −180 min (basal)) was 0. For the same molecule, the “Protein levels in aqueous humor (raw data)” value (protein in aqueous humor; 0.5% topical, listed as LE) was 36.14 mg/mL and 39.10 mg/mL and 34.69 mg/mL and 26.10 mg/mL and 26.30 mg/mL and 28.16 mg/mL and 40.90 mg/mL and 39.85 mg/mL, the “Protein levels in aqueous humor, Mean” value (protein in aqueous humor; 0.5% topical) was 33.905 mg/mL and the “PMN numbers in aqueous humor (raw data)” value (Leukocytes (PMN); 0.5% topical, samples collected at the second paracentesis, single eyes, listed as LE) was 40 number/μl and 20 number/μl and 30 number/μl. The “PMN numbers in aqueous humor, Mean” value (Leukocytes (PMN); 0.5% topical) was 28.333 number/μl.
